According to patent publication US20130310374A1, “Substituted Imidazoquinoline Derivatives” (PIRAMAL ENTERPRISES LIMITED`, priority 2010, published 2013):

Columns and labels:
[1] = target: T1, ALK1 (ACVRL1) (Homo sapiens, UniProt P37023); assay: ALK1 inhibition assay (TR-FRET); format: biochemical; details: 20 μM ATP, read-out: IC50 for ALK-1
T1 construct: recombinant human, catalytic domain of ALK1 (ACVRL1) or ALK2 (ACVR1) kinase GST fusion proteins; GST; purchased Invitrogen, USA
Procedure: (§1) Protocol for ALK1 and ALK2 Inhibition Assay
(§2) The in vitro kinase assays using recombinant human, catalytic domain of ALK1 (ACVRL1) or ALK2 (ACVR1) kinase GST fusion proteins (Invitrogen, USA) were conducted using a time-resolved fluorescence (TR-FRET) format. Kinase reactions were carried out in a 384-well plate format in a final volume of 20 μl. The standard enzyme reaction buffer consisted of 50 mM Tris HCL (pH: 7.4), 1 mM EGTA, 10 mM MgCl2, 2 mM DTT, 0.01% Tween-20, 20 nM of ALK1/ALK2 kinase enzyme (Invitrogen, USA), 50 nM of peptide substrate (DNA Topoisomerase 2 alpha (Thr 1342)U1 peptide, Perkin Elmer, USA) and 20 μM of ATP. Various concentrations of compound of Example 3a in DMSO (final concentration 2%), was added to give a final concentration of the compound ranging from 20 μM to 20 pM. [20 nM of enzyme and compound in various concentrations were pre incubated for 10 minutes at 23° C. followed by the addition of 50 nM of the peptide substrate]. Reaction was initiated with the addition of 20 μM of ATP. After incubation for 1 hour at 23° C., kinase reaction was stopped with the addition of 5 μl EDTA (final concentration of 10 mM in 20 μl). […] The IC50 values for compound of Example 3a were determined by a four-parameter sigmoidal curve fit (Sigma plot or Graph pad).

[2] = target: T2, ALK2 (ACVR1) (Homo sapiens, UniProt Q04771); assay: ALK2 inhibition assay (TR-FRET); format: biochemical; details: 20 μM ATP, read-out: IC50 for ALK-2
T2 construct: recombinant human, catalytic domain of ALK1 (ACVRL1) or ALK2 (ACVR1) kinase GST fusion proteins; GST; purchased Invitrogen, USA
T2 sequence (Q04771 208-502 limits assumed): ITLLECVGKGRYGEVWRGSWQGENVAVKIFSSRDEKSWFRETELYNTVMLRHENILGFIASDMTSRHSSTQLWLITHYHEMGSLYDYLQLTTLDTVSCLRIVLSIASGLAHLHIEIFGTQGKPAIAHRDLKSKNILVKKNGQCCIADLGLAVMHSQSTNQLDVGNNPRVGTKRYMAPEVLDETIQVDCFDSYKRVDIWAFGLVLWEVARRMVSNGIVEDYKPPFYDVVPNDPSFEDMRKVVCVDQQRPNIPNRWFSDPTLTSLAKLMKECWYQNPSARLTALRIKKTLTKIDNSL
Procedure: as §1, §2

[3] = system: arthritic DBA/1 J mice; assay: Collagen-induced arthritis; format: in vivo, mouse; details: 1 mg/kg, p.o., twice daily
Procedure: Protocol for Collagen-Induced Arthritis
Induction of Collagen-Induced Arthritis and Treatment with Compound of Example 19
All animal experiments were carried out in accordance with the guidelines of Committee for the Purpose of Control and Supervision of Experiments on Animals (CPCSEA). All animal experiments were approved by Institutional Animal Ethics Committee (IAEC) of Piramal Life Sciences Limited, Mumbai, India. Collagen-induced arthritis was induced in DBA/1 J mice as described in J. Exp. Med., 1985, 162, 637-46. Inbred male DBA/1 J mice (8-10 weeks of age, Jackson Laboratories, Bar Harbor, Me.) were immunized intradermally at the base of the tail with 200 μg type II collagen emulsified in Freund's Complete Adjuvant (FCA) on day 0. On day 17, immunized mice were randomized into different groups based on their body weight. From day 17 onwards, (i) one group of mice started receiving administration of compound of Example 19 (1 mg/kg, p.o., twice daily), (ii) a second group of mice started receiving administration of vehicle (0.5% CMC, p.o., twice daily), and (iii) a third group of mice started receiving administration of Enbrel (3 mg/kg, s.c., once daily). On day 21, all mice were boosted with 200 μg type II collagen emulsified in FCA. The mice (8 per treatment group) were monitored daily (from day 17 onwards) for the development and severity of arthritis using articular index and paw thickness as parameters. Articular index scoring was performed employing the following criteria—Fore limbs (Scale 0-3): 0, no redness or swelling; 1, redness but no swelling; 2, redness and swelling of the paw; 3, redness and severe swelling of the paw. […] Swelling of each of the paws of mice was measured with constant-tension, spring-loaded calipers (Mitutoyo, Aurora, Ill.). […]
Treatment continued daily until day 36 of the study, and the body weight of the animal along with the severity of inflammation for all 4 paws was monitored daily. […]

T1 sequence (P37023 202-492 limits assumed): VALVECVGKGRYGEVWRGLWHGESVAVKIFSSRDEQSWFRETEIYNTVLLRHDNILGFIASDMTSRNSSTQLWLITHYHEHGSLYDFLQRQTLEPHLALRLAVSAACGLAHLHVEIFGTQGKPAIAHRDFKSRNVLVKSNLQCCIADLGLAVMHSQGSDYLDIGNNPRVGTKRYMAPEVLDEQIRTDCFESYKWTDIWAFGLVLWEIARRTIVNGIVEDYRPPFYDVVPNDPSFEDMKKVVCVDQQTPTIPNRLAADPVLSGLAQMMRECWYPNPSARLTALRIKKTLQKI

| Compound | IC50 [1] [nM] | IC50 [2] [nM] | Bone erosion and joint space narrowing ([3]; day 17 to day 36) | Joint destruction, hyperproliferative pannus formation and infiltration of inflammatory cells ([3]; day 17 to day 36) | Disease-associated increase in articular index and paw thickness ([3]; day 17 to day 36, FIGS. 4a and 4b) |
| --- | --- | --- | --- | --- | --- |
| CS(=O)(=O)O.Cn1c(=O)n(-c2ccc(C(C)(C)C#N)nc2)c2c3cc(-c4cnc(N)c(C(F)(F)F)c4)ccc3ncc21 [Example 3a, 8-(6-Amino-5-(trifluoromethyl)pyridin-3-yl)-1-(6-(2-cyanopropan-2-yl)pyridin-3-yl)-3-methyl-2-oxo-2,3-dihydro-1H-imidazo[4,5-c]quinolin-5-ium methanesulfonate] | 42 | 47 |  |  |  |
| COc1ccc(-n2c(=O)n(C)c3cnc4ccc(-c5cnc(N)c(C(F)(F)F)c5)cc4c32)cn1 [Example 19, 8-(6-Amino-5-(trifluoromethyl)pyridin-3-yl)-1-(6-methoxypyridin-3-yl)-3-methyl-1H-imidazo[4,5-c]quinolin-2(3H)-one] |  |  | distinctly protects against bone erosion and joint space narrowing | prominently diminishes joint destruction, hyperproliferative pannus formation and infiltration of inflammatory cells | inhibits disease-associated increase in articular index and paw thickness |
